Experimental data as given in US20260248972A1, “DUAL RECEPTOR TARGETING RADIOLIGANDS AND USES THEREOF RELATED APPLICATIONS” (priority 2022, published 2026).
pIC50: −log10 of the molar value. *1 amine or outer side, *2 acyl side, *3 side chain or, on linkers, in order; H or OH if unused. Where a SMILES comes first, the peptide text is derived from it. Bridges are numbered along the chain shown (N, C = ends). Roman numbers before positions name the chains, in order. Side-chain parts run from the residue outwards. [ ]: non-standard residue; d: D form. The star is where a group is joined. ξ: configuration not given here. X1 = CC(C)(C)C(=O)CN1C(=O)[C@H](N*)CN(C2CCCCC2)c2ccccc21; DOTA = O=C(O)CN1CCN(CC(=O)O)CCN(CC(=O)*)CCN(CC(=O)O)CC1; γGlu = O=C(O)[C@H](CCC(=O)[*:2])N[*:1]; X2 = CC(=O)[C@H](Cc1ccc(O)cc1)N*; X3 = CC(=O)[C@@H](N*)[C@@H](C)O; 3Abz = Nc1cccc(C(=O)O)c1; ξF = NC(Cc1ccccc1)C(=O)O; ξE = NC(CCC(=O)O)C(=O)O; AEEA = NCCOCCOCC(=O)O; CO = O=C([*:1])[*:2]

Columns and labels:
[1] = target: T1, CCK2R (Homo sapiens, UniProt P32239); assay: Competitive binding (FACS) on CCK2R-transfected HEK 293T cells with Cy5-labeled F11N derivative; details: HEK 293T transfected, Cy5-labeled F11N derivative competitive ligand (Table 4); read-out: CCK2R IC50
T1 construct: expressed in transfected cells; host or cells: HEK 293T cells
T1 sequence (P32239 1-447): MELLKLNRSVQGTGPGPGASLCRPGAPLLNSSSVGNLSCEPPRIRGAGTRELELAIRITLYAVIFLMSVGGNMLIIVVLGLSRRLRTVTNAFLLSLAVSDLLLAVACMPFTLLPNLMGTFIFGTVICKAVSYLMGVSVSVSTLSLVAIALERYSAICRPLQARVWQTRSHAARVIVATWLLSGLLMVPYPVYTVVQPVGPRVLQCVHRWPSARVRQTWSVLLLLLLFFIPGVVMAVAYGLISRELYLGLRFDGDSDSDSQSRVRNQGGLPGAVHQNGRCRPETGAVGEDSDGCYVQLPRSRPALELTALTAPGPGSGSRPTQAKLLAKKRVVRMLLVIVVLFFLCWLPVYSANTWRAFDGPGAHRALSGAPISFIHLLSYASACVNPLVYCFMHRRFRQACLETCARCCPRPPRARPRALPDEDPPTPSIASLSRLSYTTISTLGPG

[2] = target: T2, SSTR2 (Homo sapiens, UniProt P30874); assay: Competitive binding (FACS) on SSTR2-transfected HEK 293T cells with Cy5-labled DOTA-TATE; details: HEK 293T transfected, Cy5-labled DOTA-TATE competitive ligand (Table 4)
T2 construct: expressed in transfected cells; host or cells: HEK 293T cells
T2 sequence (P30874 whole entry, species assumed): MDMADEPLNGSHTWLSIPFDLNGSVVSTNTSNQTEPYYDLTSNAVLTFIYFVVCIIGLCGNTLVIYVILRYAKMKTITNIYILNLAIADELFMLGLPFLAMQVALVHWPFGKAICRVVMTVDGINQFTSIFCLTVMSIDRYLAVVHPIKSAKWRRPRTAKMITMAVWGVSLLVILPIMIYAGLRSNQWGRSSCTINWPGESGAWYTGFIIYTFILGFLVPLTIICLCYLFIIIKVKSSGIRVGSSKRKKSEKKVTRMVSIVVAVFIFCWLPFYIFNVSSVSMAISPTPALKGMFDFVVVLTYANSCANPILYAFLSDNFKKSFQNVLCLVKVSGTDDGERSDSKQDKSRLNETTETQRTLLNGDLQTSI
Description: Binding Affinity Tested by Using Cy5-Labled Competitive Ligands.
HEK 293T cells were transfected with SSTR2 or CCK2R-expressing plasmid by Lipofectamine 2000 reagent. 24 hours after transfection, cells were harvested and suspended with assay buffer (1% OVA in DMEM). […] The testing compound was further supplemented into the wells at different concentrations. After incubation for 1 hour at dark, cells were washed and suspended in FACS buffer (1% OVA in DPBS). The fluorescent signal was detected by FACS machine and the binding affinity of the testing compound was evaluated by calculation of IC50 for competitive binding of reference compound.

pIC50 [1]	pIC50 [2]	SMILES
6.90	8.03	CC(=O)[C@H](Cc1ccc(O)cc1)NC(=O)[C@H](CSSC[C@H](NC(=O)[C@@H](NC(=O)[C@H](CCCCN)NC(=O)[C@H](N)Cc1c[nH]c2ccccc12)[C@@H](C)O)C(=O)N[C@H](C(C)=O)[C@@H](C)O)NC(=O)C(Cc1ccccc1)NC(=O)COCCOCCNC(=O)COCCOCCNC(=O)CC[C@H](NC(=O)C(CCC(=O)O)NC(=O)[C@H](CCCCNC(=O)c1cccc(NC(=O)N[C@@H]2CN(C3CCCCC3)c3ccccc3N(CC(=O)C(C)(C)C)C2=O)c1)NC(=O)CN1CCN(CC(=O)O)CCN(CC(=O)O)CCN(CC(=O)O)CC1)C(=O)O (stereo partly drawn) [Compound I-75, DOTA-K(Z360)-Glu-gGlu-OEG-OEG-f[CYwKTC]T-OH] (I: {DOTA}-K([3Abz-CO-X1])[ξE][γGlu][AEEA][AEEA][ξF]C-X2 / II: H-[dW]KTC-X3; disulfide I:7-II:4)
7.52	8.21	C[C@@H](O)[C@H](NC(=O)[C@@H]1CSSC[C@H](NC(=O)[C@@H](Cc2ccccc2)C(=O)C(=O)COCCOCCNC(=O)[C@H](CCCCCC(=O)COCCOCCNC(=O)CC[C@H](NC(=O)[C@H](CN)NC(=O)c2cccc(NC(=O)NN3CC(C4CCCCC4)c4ccccc4N(CC(=O)C(C)(C)C)C3=O)c2)C(=O)O)NC(=O)CN2CCN(CC(=O)O)CCN(CC(=O)O)CCN(CC(=O)O)CC2)C(=O)N[C@@H](Cc2ccc(O)cc2)C(=O)N[C@H](Cc2c[nH]c3ccccc23)C(=O)N[C@@H](CCCCN)C(=O)N[C@@H]([C@@H](C)O)C(=O)C1)C(=O)O (stereo partly drawn) [Compound I-78, DOTA- K(-OEG- gGlu- Dap- Z360)- OEG- f[CYwKTC]T- OH]
7.62	8.30	C[C@@H](O)[C@H](NC(=O)[C@@H]1CSSC[C@H](NC(=O)[C@@H](Cc2ccccc2)C(=O)C(=O)COCCOCCNC(=O)[C@H](CCCCCC(=O)COCCOCCNC(=O)COCCOCCNC(=O)C(Cc2ccc(C(=O)O)cc2)NC(=O)c2cccc(NC(=O)NN3CC(C4CCCCC4)c4ccccc4N(CC(=O)C(C)(C)C)C3=O)c2)NC(=O)CN2CCN(CC(=O)O)CCN(CC(=O)O)CCN(CC(=O)O)CC2)C(=O)N[C@@H](Cc2ccc(O)cc2)C(=O)N[C@H](Cc2c[nH]c3ccccc23)C(=O)N[C@@H](CCCCN)C(=O)N[C@@H]([C@@H](C)O)C(=O)C1)C(=O)O (stereo partly drawn) [Compound I-80, DOTA-K(-OEG-OEG-Cbp-Z360)-OEG-f[CYwKTC]T-OH]
